Measurements reported in US20050256152A1, “Salt of a sulfonic acid containing clopidogrel and use thereof for the production of pharmaceutical formulations” (priority 2003, published 2005).
Structures can show the parent of a compound that is named as a salt. Where two headings read alike, the source gives them in different places.

Key:
[1] = Protocol: (§1) 4.1 The stress stability of various salts of the clopidogrel was tested under different conditions. […] The following tests were conducted:
50 mg of the salt concerned are weighed into a volumetric flask (100 ml) and held at 80° C. for 20 hours. After the end of each experiment and cooling to room temperature, the mobile phase is added up to 100 ml.
(§2) The result is determined by means of HPLC.
(§3) In all cases, the HPLC measurements were carried out under the following conditions with UV detection: […]

[2] = 75% relative humidity
[3] = tables 1 to 4
[4] = 5 hours
Protocol: as §1
50 mg of the salt concerned are weighed into a volumetric flask (100 ml) and 2 ml of 3% H2O2 added. Then the flask is kept either at room temperature for 5 hours or at 80° C. for 5 hours. After the end of each experiment and, optionally, cooling to room temperature, the mobile phase is added up to 100 ml.
as §2, §3

[5] = 40 and 60° C., 75% relative humidity, 15 days, FIG. 4
[6] = for stress stability result by HPLC, alkaline: 2 ml 1N NaOH, 5 hours
Protocol: as §1
Then the flask is held either at room temperature for 5 hours or at 80° C. for 5 hours.
as §2, §3

[7] = 2 ml water, 5 hours
Protocol: as §1
50 mg of the salt concerned are weighed into a volumetric flask (100 ml) and 2 ml of water added. Then the flask is kept either at room temperature for 5 hours or at 80° C. for 5 hours. After the end of each experiment and, optionally, cooling to room temperature, the mobile phase is added up to 100 ml.
as §2, §3

[8] = 2 ml 1N HCl, 5 hours
Protocol: as §1
Then the flask is kept either at room temperature for 5 hours or at 80° C. for 5 hours.
as §2, §3

| Compound | stress stability result by HPLC, heat ([1]; 20 h) | content after 15 days (initial value normalised to 100%) ([2]; 40° C.) | content after 15 days (initial value normalised to 100%) ([2]; 60° C.) | stress stability result by HPLC, heat ([1]; solid salt, 80° C., 20 hours) | stress stability result by HPLC, oxidising ([4]; 2 ml 3% H2O2, 80° C.) | stress stability result by HPLC, oxidising ([4]; 2 ml 3% H2O2, room temperature) | stress stability result by HPLC, alkaline ([6]; 80° C.) | stress stability result by HPLC, alkaline ([6]; room temperature) | stress stability result by HPLC, neutral ([7]; 80° C.) | stress stability result by HPLC, neutral ([7]; room temperature) | stress stability result by HPLC, acidic ([8]; 80° C.) | stress stability result by HPLC, acidic ([8]; room temperature) | further results |
| --- | --- | --- | --- | --- | --- | --- | --- | --- | --- | --- | --- | --- | --- |
| COC(=O)[C@H](c1ccccc1Cl)N1CCc2sccc2C1 [Clopidogrel Hydrochloride, clopidogrel hydrochloride, reference compound] | 32.43% | 93.66% | 42.54% |  |  |  |  |  |  |  |  |  |  |
| COC(=O)[C@H](c1ccccc1Cl)N1CCc2sccc2C1.O=S(=O)(O)c1ccccc1 [Clopidogrel Benzene Sulfonate (Crystalline)] |  |  |  | 4.52% | 3.98% | 0.13% | 28.05% | 0.14% | 4.18% | 0.19% | 2.76% | 0.14% | stability in comparison with other salts (stress tests) [3]: even more stable than clopidogrel hydrogen sulfate; stability (decrease of content), compared with hydrogen sulfate and hydrochloride [5]: best stability values |
| Clopidogrel besylate |  | 103.32% | 66.48% |  |  |  |  |  |  |  |  |  |  |
| Clopidogrel mesylate |  | 97.56% | 17.11% |  |  |  |  |  |  |  |  |  |  |
| COC(=O)[C@H](c1ccccc1Cl)N1CCc2sccc2C1.O=S(=O)(O)c1ccccc1 [Clopidogrel Benzene Sulfonate (Amorphous)] |  |  |  | 11.52% | 2.94% | 0.83% | 25.04% | 0.64% | 3.01% | 0.85% | 2.36% | 0.64% | stability under alkaline conditions in comparison with the hydrogen sulfate and hydrochloride salts ([6]; alkaline conditions): considerably increased stability |
| COC(=O)[C@H](c1ccccc1Cl)N1CCc2sccc2C1 [Clopidogrel Hydrogen Sulfate, clopidogrel hydrogen sulfate, reference compound] | 0.31% |  |  |  |  |  |  |  |  |  |  |  |  |
